# According to patent US10463644B2, “Uses of sesquiterpene lactone compounds and their derivatives in drugs preparation” (ACCENDATECH, priority 2013, dated 2019):
# Read-outs that look alike come from different tables or passages of the source.
# How the values were obtained:
# [1] = test system: IL-1β secreted by synoviocyte; test: Content of IL-1β in culture supernatant of synoviocyte of RA model rats given test compound; assay type: in vivo; conditions: rat RA model, dose 30 mg/kg.2d; normal control 0.16 ± 0.034, NaCl 0.49 ± 0.136
# Method in brief: (§1)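 Rat RA model; dosing 30 mg/kg.2d; normal and NaCl control groups. Synoviocyte culture supernatant collected; TNF-α and PGE2 measured by one established method, IL-1β by a separate method.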
# [2] = test system: PGE2 secreted by synoviocyte; test: Content of PGE2 in culture supernatant of synoviocyte of RA model rats given test compound; assay type: in vivo; conditions: rat RA model, dose 30 mg/kg.2d; normal control 8.34 ± 1.29, NaCl 32.44 ± 10.32
# Method in brief: as §1
# cancer stem cells = test: Survival rate of cancer stem cells after test compound is added (flow cytometry, Annexin V-FITC/PI, clinical specimen); assay type: cell-based, patient; conditions: Homo sapiens, 18 h
# Method in brief: (§2)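 Survival was determined in clinical specimens after an 18 h compound treatment, using Annexin V-FITC/PI apoptosis staining and flow cytometry.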
# cancer cells = test: Survival rate of cancer cells after test compound is added (flow cytometry, Annexin V-FITC/PI, clinical specimen); assay type: cell-based, patient; conditions: Homo sapiens, 18 h, read-out: Survival rate (%) All cells (Stem cells and ordinary cells)
# Method in brief: as §2
# normal cells = test: Survival rate of normal cells after test compound is added (flow cytometry, Annexin V-FITC/PI); assay type: cell-based; conditions: 18 h
# Method in brief: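 Steps: density-gradient isolation of mononuclear cells from fresh or cryopreserved clinical samples; 18-hour compound exposure at 1×10^6 cells/mL; staining for stem-cell surface markers, then Annexin V-FITC and PI; flow cytometric apoptosis analysis.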
# [3] = Head and neck squamous cell carcinomas
# [4] = read-out: Survival rate (%) All cells (Stem cells and ordinary cells)
# [5] = read-out: Survival rate (%) Stem cells
compound,measurement,setting,value
CCOC(=O)[C@@H]1CCCN1C[C@@H]1C(=O)O[C@H]2[C@H]1CCC1(CC1)[C@@H]1CCC3(CC3)[C@H]21 [Compound 29],Content of IL-1β in culture supernatant of synoviocyte (x ± s),[1],0.34 ± 0.039 ng/mL
same,Content of PGE2 in culture supernatant of synoviocyte (x ± s),[2],27.64 ± 2.37 ng/mL
same,viability at 10 µM,cancer stem cells; AML,84%
same,viability at 20 µM,cancer stem cells; AML,78%
same,viability at 10 µM,cancer stem cells; Brain glioma,82%
same,viability at 20 µM,cancer stem cells; Brain glioma,76%
same,viability at 10 µM,cancer stem cells; Brain tumor,87%
same,viability at 20 µM,cancer stem cells; Brain tumor,76%
same,viability at 10 µM,cancer stem cells; Breast cancer,79%
same,viability at 20 µM,cancer stem cells; Breast cancer,72%
same,viability at 10 µM,cancer stem cells; CLL,85%
same,viability at 20 µM,cancer stem cells; CLL,79%
same,viability at 10 µM,cancer stem cells; CML,81%
same,viability at 20 µM,cancer stem cells; CML,75%
same,viability at 10 µM,cancer stem cells; Children hepatoblastoma,85%
same,viability at 20 µM,cancer stem cells; Children hepatoblastoma,77%
same,viability at 10 µM,cancer stem cells; Colon adenocarcinoma,81%
same,viability at 20 µM,cancer stem cells; Colon adenocarcinoma,75%
same,viability at 10 µM,cancer stem cells; Colorectal cancer,84%
same,viability at 20 µM,cancer stem cells; Colorectal cancer,78%
same,viability at 10 µM,cancer stem cells; Gastric cancer,79%
same,viability at 20 µM,cancer stem cells; Gastric cancer,72%
same,viability at 10 µM,cancer stem cells; Gastrointestinal tumor,81%
same,viability at 20 µM,cancer stem cells; Gastrointestinal tumor,75%
same,viability at 10 µM,cancer stem cells; Glioma,84%
same,viability at 20 µM,cancer stem cells; Glioma,78%
same,viability at 10 µM,cancer stem cells; [3],82%
same,viability at 20 µM,cancer stem cells; [3],74%
same,viability at 10 µM,cancer stem cells; Laryngeal cancer,85%
same,viability at 20 µM,cancer stem cells; Laryngeal cancer,79%
same,viability at 10 µM,cancer stem cells; Liver cancer,85%
same,viability at 20 µM,cancer stem cells; Liver cancer,77%
same,viability at 10 µM,cancer stem cells; Lung adenocarcinoma,88%
same,viability at 20 µM,cancer stem cells; Lung adenocarcinoma,81%
same,viability at 10 µM,cancer stem cells; Lung cancer,87%
same,viability at 20 µM,cancer stem cells; Lung cancer,76%
same,viability at 10 µM,cancer stem cells; Malignant melanoma,82%
same,viability at 20 µM,cancer stem cells; Malignant melanoma,73%
same,viability at 10 µM,cancer stem cells; Nasopharynx cancer,85%
same,viability at 20 µM,cancer stem cells; Nasopharynx cancer,79%
same,viability at 10 µM,cancer stem cells; Ovarian cancer,88%
same,viability at 20 µM,cancer stem cells; Ovarian cancer,81%
same,viability at 10 µM,cancer stem cells; Pancreatic cancer,82%
same,viability at 20 µM,cancer stem cells; Pancreatic cancer,76%
same,viability at 10 µM,cancer stem cells; Prostate cancer,85%
same,viability at 20 µM,cancer stem cells; Prostate cancer,79%
same,viability at 10 µM,cancer stem cells; Retinoblastoma,85%
same,viability at 20 µM,cancer stem cells; Retinoblastoma,77%
same,viability at 10 µM,cancer stem cells; Skin cancer,82%
same,viability at 20 µM,cancer stem cells; Skin cancer,73%
same,viability at 10 µM,cancer cells; AML,91%
same,viability at 20 µM,cancer cells; AML,88%
same,viability at 10 µM,cancer cells; Brain glioma,89%
same,viability at 20 µM,cancer cells; Brain glioma,86%
same,viability at 10 µM,cancer cells; Brain tumor,94%
same,viability at 20 µM,cancer cells; Brain tumor,87%
same,viability at 10 µM,cancer cells; Breast cancer,88%
same,viability at 20 µM,cancer cells; Breast cancer,81%
same,viability at 10 µM,cancer cells; CLL,88%
same,viability at 20 µM,cancer cells; CLL,85%
same,viability at 10 µM,cancer cells; CML,87%
same,viability at 20 µM,cancer cells; CML,83%
same,viability at 10 µM,cancer cells; Children hepatoblastoma,92%
same,viability at 20 µM,cancer cells; Children hepatoblastoma,89%
same,viability at 10 µM,cancer cells; Colon adenocarcinoma,87%
same,viability at 20 µM,cancer cells; Colon adenocarcinoma,83%
same,viability at 10 µM,cancer cells; Colorectal cancer,91%
same,viability at 20 µM,cancer cells; Colorectal cancer,88%
same,viability at 10 µM,cancer cells; Gastric cancer,88%
same,viability at 20 µM,cancer cells; Gastric cancer,81%
same,viability at 10 µM,cancer cells; Gastrointestinal tumor,87%
same,viability at 20 µM,cancer cells; Gastrointestinal tumor,83%
same,viability at 10 µM,cancer cells; Glioma,91%
same,viability at 20 µM,cancer cells; Glioma,88%
same,viability at 10 µM,cancer cells; [3],88%
same,viability at 20 µM,cancer cells; [3],85%
same,viability at 10 µM,cancer cells; Laryngeal cancer,93%
same,viability at 20 µM,cancer cells; Laryngeal cancer,86%
same,viability at 10 µM,cancer cells; Liver cancer,92%
same,viability at 20 µM,cancer cells; Liver cancer,89%
same,viability at 10 µM,cancer cells; Lung adenocarcinoma,91%
same,viability at 20 µM,cancer cells; Lung adenocarcinoma,89%
same,viability at 10 µM,cancer cells; Lung cancer,94%
same,viability at 20 µM,cancer cells; Lung cancer,87%
same,viability at 10 µM,cancer cells; Malignant melanoma,91%
same,viability at 20 µM,cancer cells; Malignant melanoma,87%
same,viability at 10 µM,cancer cells; Nasopharynx cancer,88%
same,viability at 20 µM,cancer cells; Nasopharynx cancer,85%
same,viability at 10 µM,cancer cells; Ovarian cancer,91%
same,viability at 20 µM,cancer cells; Ovarian cancer,89%
same,viability at 10 µM,cancer cells; Pancreatic cancer,88%
same,viability at 20 µM,cancer cells; Pancreatic cancer,89%
same,viability at 10 µM,cancer cells; Prostate cancer,93%
same,viability at 20 µM,cancer cells; Prostate cancer,86%
same,viability at 10 µM,cancer cells; Retinoblastoma,92%
same,viability at 20 µM,cancer cells; Retinoblastoma,89%
same,viability at 10 µM,cancer cells; Skin cancer,91%
same,viability at 20 µM,cancer cells; Skin cancer,87%
same,viability at 10 µM,normal cells; [4],96%
same,viability at 10 µM,normal cells; [5],93%
same,viability at 20 µM,normal cells; [4],95%
same,viability at 20 µM,normal cells; [5],92%
